Experimental data reported in the supplement of paper PMC4862054.

Assays:
Assay in all cases: normalised response (% of control), CellTiter-Glo; higher = more viable cells (100 = DMSO, 0 = benzethonium chloride kill control)
Conditions in all cases: incubation time: 72 h
[1] = system: BT-474
Outline: (§1)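 Breast cancer cell lines in 20 µl suspension were added to 384-well plates containing compound at 5 concentrations, spaced in 10-fold steps across a 10,000-fold range chosen for each compound, and incubated for 72 h. CellTox Green fluorescence was read at 485/520 nm, followed by CellTiter-Glo luminescence after 10 min at room temperature. Signals on each plate were normalised so that 0.1 % DMSO equals 100 and a positive kill control equals 0. Every value in the table is the normalised signal at one concentration of the series.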

[2] = system: BT-549
Outline: as §1

[3] = system: CAL-120
Outline: as §1

[4] = system: CAL-148
Outline: as §1

[5] = system: CAL-51
Outline: as §1

[6] = system: CAL-85-1
Outline: as §1

[7] = system: DU-4475
Outline: as §1

[8] = system: HCC1143
Outline: as §1

[9] = system: HCC1599
Outline: as §1

[10] = system: HCC1937
Outline: as §1

[11] = system: HDQ-P1
Outline: as §1

[12] = system: Hs578T
Outline: as §1

[13] = system: MCF-10A
Outline: as §1

[14] = system: MDA-MB-231
Outline: as §1

[15] = system: MDA-MB-436
Outline: as §1

[16] = system: MDA-MB-453
Outline: as §1

[17] = system: MDA-MB-468
Outline: as §1

[18] = system: MFM-223
Outline: as §1

[19] = system: SK-BR-3
Outline: as §1

| SMILES | normalised response [1] [%] | normalised response [2] [%] | normalised response [3] [%] | normalised response [4] [%] | normalised response [5] [%] | normalised response [6] [%] | normalised response [7] [%] | normalised response [8] [%] | normalised response [9] [%] | normalised response [10] [%] | normalised response [11] [%] | normalised response [12] [%] | normalised response [13] [%] | normalised response [14] [%] | normalised response [15] [%] | normalised response [16] [%] | normalised response [17] [%] | normalised response [18] [%] | normalised response [19] [%] |
| --- | --- | --- | --- | --- | --- | --- | --- | --- | --- | --- | --- | --- | --- | --- | --- | --- | --- | --- | --- |
| CC(C)(C)Cn1c(N)nc2ccc(-c3[nH]c(C(C)(C)C)nc3-c3ccc(F)cc3)nc21 (1 nM) | 103 | 103 | 98.8 | 110 | 117 | 99.9 | 98.1 | 104 | 104 | 105 | 101 | 95.4 | 109 | 99.3 | 101 | 110 | 102 | 106 | 104 |
| CC(C)(C)Cn1c(N)nc2ccc(-c3[nH]c(C(C)(C)C)nc3-c3ccc(F)cc3)nc21 (10 nM) | 103 | 95.9 | 97.8 | 110 | 97.5 | 97.8 | 105 | 104 | 95.5 | 95.1 | 95.6 | 106 | 106 | 99.7 | 104 | 104 | 102 | 105 |  |
| Cn1cc(C[C@@H](N)C(=O)O)c2ccccc21 [1-methyl-D-tryptophan] (0.5 nM) | 96.1 | 101 | 95.6 | 87.4 | 113 | 94.3 | 101 | 96.5 | 102 | 97.6 | 105 | 99.3 | 97.1 | 95.2 | 103 | 99.4 | 98 | 92.8 | 93 |
| Cn1cc(C[C@@H](N)C(=O)O)c2ccccc21 [1-methyl-D-tryptophan] (5 nM) | 100 | 95.7 | 95.1 | 88.9 | 94.2 | 91.3 | 95.8 | 102 | 107 | 98.5 | 104 | 93.2 | 95.2 | 96.8 | 107 | 90.1 | 98.3 | 94.2 | 99.8 |
| CC[C@H](CC#N)OC(=O)N[C@@H](C)c1cccc(NC(=O)Nc2ccc(-c3cnco3)c(OC)c2)c1 [AVN944] (1 nM) | 89.2 | 98.5 | 96.7 | 99.8 | 112 | 97 | 97.9 | 93.2 | 90.3 | 103 | 99.4 | 97.8 | 99.1 | 96.1 | 91.1 | 99.6 | 97.2 | 93.5 | 95.7 |
| CC[C@H](CC#N)OC(=O)N[C@@H](C)c1cccc(NC(=O)Nc2ccc(-c3cnco3)c(OC)c2)c1 [AVN944] (10 nM) | 89.4 | 91.5 | 95 | 99.3 | 122 | 95.8 | 97.5 | 97.3 | 88.6 | 96 | 100 | 96.4 | 99.7 | 101 | 97.6 | 82.7 | 111 | 96.2 |  |
| Cc1c(N)nc([C@H](CC(N)=O)NC[C@H](N)C(N)=O)nc1C(=O)N[C@H](C(=O)N[C@H](C)[C@@H](O)[C@H](C)C(=O)N[C@H](C(=O)NCCc1nc(-c2nc(C(=O)NCCC[S+](C)C)cs2)cs1)[C@@H](C)O)[C@@H](OC1OC(CO)C(O)C(O)C1OC1OC(CO)C(O)C(OC(N)=O)C1O)c1cnc[nH]1 (stereo partly drawn) [Bleomycin] (10 nM) | 95.7 | 87.6 | 97.3 | 85 | 97.5 | 96.1 | 98.1 | 98.9 | 97.7 | 93.3 | 97.6 | 99.8 | 100 | 96.3 | 94.2 | 104 | 98 | 101 | 106 |
| Cc1cc2c(F)c(Oc3ncnn4cc(OC[C@@H](C)O)c(C)c34)ccc2[nH]1 [Brivanib] (1 nM) | 107 | 95.2 | 98.9 | 111 | 74.5 | 102 | 111 | 104 | 103 | 102 | 97.8 | 103 | 107 | 104 | 102 | 107 | 108 | 110 |  |
| CCCCCOC(=O)Nc1nc(=O)n([C@@H]2O[C@H](C)[C@@H](O)[C@H]2O)cc1F [Capecitabine] (10 nM) | 99.6 | 93.2 | 102 | 110 | 99.6 | 97.4 | 100 | 96.9 | 86.9 | 98.8 | 99.6 | 98.1 | 105 | 96.4 | 98.7 | 107 | 91.9 | 103 | 99.5 |
| CC(C)C[C@H](NC(=O)[C@H](CCc1ccccc1)NC(=O)CN1CCOCC1)C(=O)N[C@@H](Cc1ccccc1)C(=O)N[C@@H](CC(C)C)C(=O)[C@@]1(C)CO1 [Carfilzomib] (1 nM) | 115 | 99.5 | 105 | 108 | 87.7 | 105 | 108 | 106 | 108 | 101 | 108 | 100 | 115 | 105 | 109 | 101 | 106 | 112 | 107 |
| Nc1nc(Cl)nc2c1ncn2[C@@H]1O[C@H](CO)[C@@H](O)[C@@H]1F [Clofarabine] (10 nM) | 102 | 98.3 | 101 | 107 | 72.2 | 105 | 102 | 102 | 95.2 | 95.8 | 96.8 | 105 | 105 | 93.5 | 95.1 | 91.3 | 98.9 | 101 |  |
| CCN(CC)CCOc1ccc(C(=C(Cl)c2ccccc2)c2ccccc2)cc1 [Clomifene] (10 nM) | 107 | 99.5 | 106 | 102 | 122 | 99.9 | 103 | 104 | 96.3 | 111 | 100 | 103 | 107 | 105 | 101 | 112 | 99.2 | 102 |  |
| C[C@@H]1C[C@H]2[C@@H]3CCC4=CC(=O)C=C[C@]4(C)[C@@]3(F)[C@@H](O)C[C@]2(C)[C@@]1(O)C(=O)CO [Dexamethasone] (10 nM) | 130 | 97.4 | 83.2 | 100 | 113 | 116 | 101 | 103 | 100 | 97.5 | 89.8 | 104 | 94 | 137 | 102 | 95.2 | 97.9 | 95.2 |  |
| CCc1cnn2c(NCc3ccc[n+]([O-])c3)cc(N3CCCC[C@H]3CCO)nc12 [Dinaciclib] (0.1 nM) | 97.1 | 109 | 99.6 | 110 | 82.8 | 98.4 | 102 | 102 | 103 | 102 | 104 | 99 | 106 | 98.5 | 99.3 | 99 | 93.8 | 100 | 103 |
| CCc1cnn2c(NCc3ccc[n+]([O-])c3)cc(N3CCCC[C@H]3CCO)nc12 [Dinaciclib] (1 nM) | 95.7 | 92.5 | 99.6 | 115 | 82.1 | 101 | 97.8 | 107 | 101 | 98.5 | 104 | 109 | 102 | 98.3 | 98.5 | 103 | 97.8 | 103 |  |
| CC(C)NC[C@@H](C(=O)N1CCN(c2ncnc3c2[C@H](C)C[C@H]3O)CC1)c1ccc(Cl)cc1 [GDC-0068] (10 nM) | 96.8 | 98.2 | 99.8 | 96.8 | 108 | 95.6 | 105 | 103 | 90.8 | 97 | 96.1 | 100 | 103 | 110 | 94.4 | 91.1 | 95.7 | 98.8 |  |
| COc1cc2c(cc1-c1c(C)noc1C)ncc1[nH]c(=O)n([C@H](C)c3ccccn3)c12 [I-BET151] (10 nM) | 98 | 91.9 | 100 | 111 | 94.3 | 99.4 | 103 | 107 | 100 | 98.5 | 97.9 | 99 | 108 | 105 | 101 | 91.7 | 99.2 | 103 |  |
| COc1cc2c(N3CCN(C(=O)Nc4ccc(OC(C)C)cc4)CC3)ncnc2cc1OCCCN1CCCCC1 [Tandutinib] (1 nM) | 99.9 | 94.9 | 104 | 101 | 118 | 107 | 102 | 103 | 90.9 | 99 | 103 | 98.6 | 99.8 | 101 | 107 | 95.1 | 102 | 103 |  |
| C[C@@H](C(=O)O)c1ccc(-c2ccccc2)c(F)c1 [Tarenflurbil] (10 nM) | 90.8 | 94.5 | 96.7 | 92.2 | 123 | 95.3 | 97 | 101 | 106 | 101 | 98 | 104 | 97.5 | 94.6 | 105 | 94.9 | 86.7 | 93.7 |  |
| Cn1nnc2c(C(N)=O)ncn2c1=O [Temozolomide] (10 nM) | 97 | 102 | 97.9 | 102 | 110 | 103 | 99.4 | 98.5 | 88.7 | 95.8 | 96.7 | 100 | 92.1 | 99.5 | 101 | 98 | 97 | 97.5 |  |
